Data taken from the kinase profiling compilation of Christmann-Franck et al. (2016).
One block for each compound: values may come before it.

Assays:
Assay in all cases: radiometric filter-binding kinase assay, Kinase HotSpot
Conditions in all cases: compound 0.5 µM; ATP 10 µM
MAP3K5 (human) = MAP3K5 (human) (UniProt Q99683)
SRPK2 (human) = SRPK2 (human) (UniProt P78362)
PIM1 (human) = PIM1 (human) (UniProt P11309)
SLK (human) = SLK (human) (UniProt Q9H2G2)
MATK (human) = MATK (human) (UniProt P42679)
RPS6KB2 (human) = RPS6KB2 (human) (UniProt Q9UBS0)
EPHA1 (human) = EPHA1 (human) (UniProt P21709)
LRRK2 (human) = LRRK2 (human) (UniProt Q5S007)
ROCK2 (human) = ROCK2 (human) (UniProt O75116)
ACVRL1 (human) = ACVRL1 (human) (UniProt P37023)
MAP3K10 (human) = MAP3K10 (human) (UniProt Q02779)
ROS1 (human) = ROS1 (human) (UniProt P08922)
FER (human) = FER (human) (UniProt P16591)
CDC42BPB (human) = CDC42BPB (human) (UniProt Q9Y5S2)
ZAP70 (human) = ZAP70 (human) (UniProt P43403)
NLK (human) = NLK (human) (UniProt Q9UBE8)
ALK (human) = ALK (human) (UniProt Q9UM73)
CSNK1A1 (human) = CSNK1A1 (human) (UniProt P48729)
WNK2 (human) = WNK2 (human) (UniProt Q9Y3S1)
WNK2 (human), sequence (Q9Y3S1 whole entry, looked up): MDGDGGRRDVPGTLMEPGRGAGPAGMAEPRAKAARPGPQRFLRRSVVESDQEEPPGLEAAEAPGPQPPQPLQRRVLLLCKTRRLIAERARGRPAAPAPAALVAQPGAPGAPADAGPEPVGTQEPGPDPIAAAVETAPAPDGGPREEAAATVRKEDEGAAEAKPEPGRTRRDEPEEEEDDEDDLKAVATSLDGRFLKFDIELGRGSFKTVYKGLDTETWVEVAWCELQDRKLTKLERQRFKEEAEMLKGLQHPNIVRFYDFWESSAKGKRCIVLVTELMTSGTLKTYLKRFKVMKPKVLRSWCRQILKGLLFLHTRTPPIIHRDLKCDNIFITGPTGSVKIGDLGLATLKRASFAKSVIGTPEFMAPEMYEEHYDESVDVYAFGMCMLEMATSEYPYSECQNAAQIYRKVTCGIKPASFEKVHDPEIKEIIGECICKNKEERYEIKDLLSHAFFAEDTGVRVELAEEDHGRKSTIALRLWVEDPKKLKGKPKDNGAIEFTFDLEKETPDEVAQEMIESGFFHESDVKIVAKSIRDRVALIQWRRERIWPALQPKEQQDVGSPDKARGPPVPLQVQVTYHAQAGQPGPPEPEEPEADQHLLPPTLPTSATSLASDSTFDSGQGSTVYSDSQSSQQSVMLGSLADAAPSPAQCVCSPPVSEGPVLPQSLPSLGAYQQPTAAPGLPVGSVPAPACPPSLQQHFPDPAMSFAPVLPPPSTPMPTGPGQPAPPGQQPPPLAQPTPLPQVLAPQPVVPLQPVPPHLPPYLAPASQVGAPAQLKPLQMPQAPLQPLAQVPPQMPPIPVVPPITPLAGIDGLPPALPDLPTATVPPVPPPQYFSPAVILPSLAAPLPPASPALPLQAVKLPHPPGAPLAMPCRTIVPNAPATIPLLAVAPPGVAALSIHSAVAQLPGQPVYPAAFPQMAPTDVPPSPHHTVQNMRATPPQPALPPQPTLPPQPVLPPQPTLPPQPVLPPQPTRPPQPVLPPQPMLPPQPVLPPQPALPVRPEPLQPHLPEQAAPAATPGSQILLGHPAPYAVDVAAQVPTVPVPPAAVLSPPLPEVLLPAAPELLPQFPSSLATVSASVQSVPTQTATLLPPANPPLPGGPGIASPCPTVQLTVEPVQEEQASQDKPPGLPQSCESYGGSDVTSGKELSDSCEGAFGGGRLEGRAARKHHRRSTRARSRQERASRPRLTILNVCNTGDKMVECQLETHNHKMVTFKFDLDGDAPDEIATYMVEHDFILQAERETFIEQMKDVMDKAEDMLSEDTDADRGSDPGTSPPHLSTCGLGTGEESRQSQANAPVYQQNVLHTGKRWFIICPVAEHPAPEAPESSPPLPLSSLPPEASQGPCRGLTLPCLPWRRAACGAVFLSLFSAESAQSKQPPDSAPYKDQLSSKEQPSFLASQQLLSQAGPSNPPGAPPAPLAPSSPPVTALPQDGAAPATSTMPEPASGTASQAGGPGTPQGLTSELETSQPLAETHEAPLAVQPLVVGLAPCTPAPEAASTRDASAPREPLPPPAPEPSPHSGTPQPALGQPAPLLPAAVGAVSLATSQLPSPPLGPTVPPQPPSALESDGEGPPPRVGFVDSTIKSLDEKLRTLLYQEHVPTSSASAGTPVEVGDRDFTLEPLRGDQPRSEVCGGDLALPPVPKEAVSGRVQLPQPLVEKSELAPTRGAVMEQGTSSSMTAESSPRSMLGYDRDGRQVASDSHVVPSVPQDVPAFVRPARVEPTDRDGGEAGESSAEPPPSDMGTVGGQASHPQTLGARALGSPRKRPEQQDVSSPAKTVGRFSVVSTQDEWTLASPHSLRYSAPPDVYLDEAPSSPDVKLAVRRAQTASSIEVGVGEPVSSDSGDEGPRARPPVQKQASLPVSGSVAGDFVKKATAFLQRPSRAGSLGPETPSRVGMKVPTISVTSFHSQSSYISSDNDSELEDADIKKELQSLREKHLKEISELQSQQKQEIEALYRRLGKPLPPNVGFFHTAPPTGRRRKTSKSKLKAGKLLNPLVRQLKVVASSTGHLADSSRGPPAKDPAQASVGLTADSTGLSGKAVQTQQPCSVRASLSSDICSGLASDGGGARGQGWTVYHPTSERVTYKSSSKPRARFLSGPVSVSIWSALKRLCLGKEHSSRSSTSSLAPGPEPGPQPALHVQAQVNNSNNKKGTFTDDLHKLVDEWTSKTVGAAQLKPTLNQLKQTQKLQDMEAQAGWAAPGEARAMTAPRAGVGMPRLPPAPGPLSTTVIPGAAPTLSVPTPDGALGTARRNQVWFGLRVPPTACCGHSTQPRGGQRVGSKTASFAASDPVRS

[1] = molecular target: TYK2 JH1 catalytic (human) (UniProt P29597)
TNK2 (human) = TNK2 (human) (UniProt Q07912)
DAPK2 (human) = DAPK2 (human) (UniProt Q9UIK4)
KIT (human) = KIT (human) (UniProt P10721)
PDPK1 (human) = PDPK1 (human) (UniProt O15530)
PDPK1 (human), sequence (O15530 whole entry, looked up): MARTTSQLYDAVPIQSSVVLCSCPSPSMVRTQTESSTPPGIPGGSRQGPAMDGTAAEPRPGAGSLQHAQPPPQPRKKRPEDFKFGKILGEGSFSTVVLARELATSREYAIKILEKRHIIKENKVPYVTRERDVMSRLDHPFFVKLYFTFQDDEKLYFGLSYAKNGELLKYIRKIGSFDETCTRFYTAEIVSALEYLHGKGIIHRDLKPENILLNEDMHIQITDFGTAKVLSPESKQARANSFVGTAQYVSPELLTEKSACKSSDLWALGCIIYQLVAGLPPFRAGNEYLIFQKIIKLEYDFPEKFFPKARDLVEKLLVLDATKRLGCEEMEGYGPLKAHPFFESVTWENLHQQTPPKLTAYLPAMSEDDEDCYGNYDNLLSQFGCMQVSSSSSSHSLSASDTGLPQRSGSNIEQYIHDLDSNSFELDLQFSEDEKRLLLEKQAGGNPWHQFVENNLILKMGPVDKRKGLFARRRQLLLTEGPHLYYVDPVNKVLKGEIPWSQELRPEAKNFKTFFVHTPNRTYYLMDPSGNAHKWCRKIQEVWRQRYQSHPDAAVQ

RAF1 (human) = RAF1 (human) (UniProt P04049)
RAF1 (human), sequence (P04049 whole entry, looked up): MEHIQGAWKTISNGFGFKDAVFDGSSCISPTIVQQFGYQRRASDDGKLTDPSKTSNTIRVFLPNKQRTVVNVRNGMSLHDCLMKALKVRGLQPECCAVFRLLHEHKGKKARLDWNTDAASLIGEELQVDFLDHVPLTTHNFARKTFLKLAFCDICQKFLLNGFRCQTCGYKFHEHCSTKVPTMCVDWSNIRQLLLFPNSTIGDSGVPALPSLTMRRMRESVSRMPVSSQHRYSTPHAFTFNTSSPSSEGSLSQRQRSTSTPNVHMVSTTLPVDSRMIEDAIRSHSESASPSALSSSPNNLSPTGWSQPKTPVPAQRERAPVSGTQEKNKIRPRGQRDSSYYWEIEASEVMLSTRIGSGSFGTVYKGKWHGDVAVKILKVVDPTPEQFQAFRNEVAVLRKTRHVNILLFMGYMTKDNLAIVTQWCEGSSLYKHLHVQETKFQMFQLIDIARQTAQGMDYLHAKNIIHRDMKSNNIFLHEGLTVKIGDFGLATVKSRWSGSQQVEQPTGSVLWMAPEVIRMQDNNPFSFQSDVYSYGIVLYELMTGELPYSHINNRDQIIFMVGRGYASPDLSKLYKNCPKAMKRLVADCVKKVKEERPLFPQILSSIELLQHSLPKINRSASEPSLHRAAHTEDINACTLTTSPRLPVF

AURKC (human) = AURKC (human) (UniProt Q9UQB9)
PLK1 (human) = PLK1 (human) (UniProt P53350)
NEK11 (human) = NEK11 (human) (UniProt Q8NG66)
MET (human) = MET (human) (UniProt P08581)
EGFR (human) = EGFR (human) (UniProt P00533)
CAMK1D (human) = CAMK1D (human) (UniProt Q8IU85)
CAMK1D (human), sequence (Q8IU85 whole entry, looked up): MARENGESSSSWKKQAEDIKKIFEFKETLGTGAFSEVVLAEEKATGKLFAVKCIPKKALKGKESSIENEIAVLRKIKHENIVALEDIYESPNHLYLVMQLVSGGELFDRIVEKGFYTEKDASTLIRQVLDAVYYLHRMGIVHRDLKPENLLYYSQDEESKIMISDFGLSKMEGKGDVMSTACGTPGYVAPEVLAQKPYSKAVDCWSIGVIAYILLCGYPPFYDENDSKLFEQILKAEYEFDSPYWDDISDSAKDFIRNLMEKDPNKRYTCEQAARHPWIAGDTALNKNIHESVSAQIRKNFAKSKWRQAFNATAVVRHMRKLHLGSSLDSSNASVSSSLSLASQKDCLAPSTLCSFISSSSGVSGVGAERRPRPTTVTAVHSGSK

RET (human) = RET (human) (UniProt P07949)
RET (human), sequence (P07949 whole entry, looked up): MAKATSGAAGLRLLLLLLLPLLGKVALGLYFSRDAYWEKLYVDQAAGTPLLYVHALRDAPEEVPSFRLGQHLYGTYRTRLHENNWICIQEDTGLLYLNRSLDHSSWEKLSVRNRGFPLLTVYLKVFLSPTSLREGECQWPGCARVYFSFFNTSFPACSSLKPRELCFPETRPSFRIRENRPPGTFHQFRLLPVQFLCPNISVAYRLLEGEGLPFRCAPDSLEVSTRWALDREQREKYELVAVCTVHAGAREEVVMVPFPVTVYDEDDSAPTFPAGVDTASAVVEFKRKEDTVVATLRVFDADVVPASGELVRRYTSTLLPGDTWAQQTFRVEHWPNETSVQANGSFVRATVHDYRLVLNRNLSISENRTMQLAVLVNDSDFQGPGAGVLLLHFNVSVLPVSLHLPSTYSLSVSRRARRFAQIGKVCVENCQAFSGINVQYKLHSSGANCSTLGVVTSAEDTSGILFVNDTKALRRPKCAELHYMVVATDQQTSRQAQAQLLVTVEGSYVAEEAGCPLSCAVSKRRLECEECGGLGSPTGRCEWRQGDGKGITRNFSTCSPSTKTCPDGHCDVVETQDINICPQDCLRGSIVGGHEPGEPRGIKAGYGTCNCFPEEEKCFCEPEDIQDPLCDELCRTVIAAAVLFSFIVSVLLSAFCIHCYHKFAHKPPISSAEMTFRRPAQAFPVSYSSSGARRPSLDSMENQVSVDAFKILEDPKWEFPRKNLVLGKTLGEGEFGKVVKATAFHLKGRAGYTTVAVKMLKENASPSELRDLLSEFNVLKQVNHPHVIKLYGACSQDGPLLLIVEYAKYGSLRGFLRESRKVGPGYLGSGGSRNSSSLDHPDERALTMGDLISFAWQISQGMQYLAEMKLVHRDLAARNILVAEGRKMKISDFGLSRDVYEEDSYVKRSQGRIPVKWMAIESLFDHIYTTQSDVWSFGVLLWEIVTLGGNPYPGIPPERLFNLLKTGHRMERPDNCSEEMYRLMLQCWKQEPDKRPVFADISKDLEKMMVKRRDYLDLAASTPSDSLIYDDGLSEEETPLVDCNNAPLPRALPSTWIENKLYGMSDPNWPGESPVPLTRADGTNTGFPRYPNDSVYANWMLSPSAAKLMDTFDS

NTRK2 (human) = NTRK2 (human) (UniProt Q16620)
MERTK (human) = MERTK (human) (UniProt Q12866)
MAP3K2 (human) = MAP3K2 (human) (UniProt Q9Y2U5)
TGFBR2 (human) = TGFBR2 (human) (UniProt P37173)
FGFR4 (human) = FGFR4 (human) (UniProt P22455)
CSNK1E (human) = CSNK1E (human) (UniProt P49674)
ACVR1B (human) = ACVR1B (human) (UniProt P36896)
HIPK4 (human) = HIPK4 (human) (UniProt Q8NE63)
PAK2 (human) = PAK2 (human) (UniProt Q13177)
FES (human) = FES (human) (UniProt P07332)

SMILES: CCn1cnc2c(Nc3cccc(Cl)c3)nc(N[C@@H]3CCCC[C@@H]3N)nc21
residual activity (MAP3K5 (human)): 103%
residual activity (SRPK2 (human)): 80.7%
residual activity (PIM1 (human)): 83.8%
residual activity (SLK (human)): 71.4%
residual activity (MATK (human)): 88.3%
residual activity (RPS6KB2 (human)): 103%
residual activity (EPHA1 (human)): 79.6%
residual activity (LRRK2 (human)): 70%
residual activity (ROCK2 (human)): 90.6%
residual activity (ACVRL1 (human)): 99.9%
residual activity (MAP3K10 (human)): 92.9%
residual activity (ROS1 (human)): 90.7%
residual activity (FER (human)): 86.8%
residual activity (CDC42BPB (human)): 97.7%
residual activity (ZAP70 (human)): 106%
residual activity (NLK (human)): 90.8%
residual activity (ALK (human)): 92.3%
residual activity (CSNK1A1 (human)): 98.7%
residual activity (WNK2 (human)): 94.1%
residual activity [1]: 110%
residual activity (TNK2 (human)): 92.4%
residual activity (DAPK2 (human)): 99%
residual activity (KIT (human)): 101%
residual activity (PDPK1 (human)): 94.8%
residual activity (RAF1 (human)): 92.8%
residual activity (AURKC (human)): 94.5%
residual activity (PLK1 (human)): 86%
residual activity (NEK11 (human)): 101%
residual activity (MET (human)): 102%
residual activity (EGFR (human)): 98.1%
residual activity (CAMK1D (human)): 96.7%
residual activity (RET (human)): 69.3%
residual activity (NTRK2 (human)): 55.3%
residual activity (MERTK (human)): 76.2%
residual activity (MAP3K2 (human)): 91.7%
residual activity (TGFBR2 (human)): 91.2%
residual activity (FGFR4 (human)): 97.5%
residual activity (CSNK1E (human)): 92.1%
residual activity (ACVR1B (human)): 110%
residual activity (HIPK4 (human)): 88.4%
residual activity (PAK2 (human)): 93.9%
residual activity (FES (human)): 83.5%

residual activity (MAP3K5 (human)): 95.8%
residual activity (SRPK2 (human)): 96.6%
residual activity (PIM1 (human)): 79.8%
residual activity (SLK (human)): 80.2%
residual activity (MATK (human)): 93%
residual activity (RPS6KB2 (human)): 83.7%
residual activity (EPHA1 (human)): 83.2%
residual activity (LRRK2 (human)): 87.6%
residual activity (ROCK2 (human)): 91.7%
residual activity (ACVRL1 (human)): 107%
residual activity (MAP3K10 (human)): 92.3%
residual activity (ROS1 (human)): 105%
residual activity (FER (human)): 86.4%
residual activity (CDC42BPB (human)): 94.7%
residual activity (ZAP70 (human)): 102%
residual activity (NLK (human)): 106%
residual activity (ALK (human)): 86.7%
residual activity (CSNK1A1 (human)): 68.5%
residual activity (WNK2 (human)): 98.6%
residual activity [1]: 81.6%
residual activity (TNK2 (human)): 74.7%
residual activity (DAPK2 (human)): 68.7%
residual activity (KIT (human)): 62.3%
residual activity (PDPK1 (human)): 88.2%
residual activity (RAF1 (human)): 100%
residual activity (AURKC (human)): 86%
residual activity (PLK1 (human)): 105%
residual activity (NEK11 (human)): 110%
residual activity (MET (human)): 98.2%
residual activity (EGFR (human)): 91.1%
residual activity (CAMK1D (human)): 79.1%
residual activity (RET (human)): 6.58%
residual activity (NTRK2 (human)): 38.4%
residual activity (MERTK (human)): 77%
residual activity (MAP3K2 (human)): 93.1%
residual activity (TGFBR2 (human)): 132%
residual activity (FGFR4 (human)): 82.6%
residual activity (CSNK1E (human)): 55.8%
residual activity (ACVR1B (human)): 98.2%
residual activity (HIPK4 (human)): 95.5%
residual activity (PAK2 (human)): 103%
residual activity (FES (human)): 115%
SMILES: CC(=O)O/N=C1\C(=C2\C(=O)Nc3cc(Br)ccc32)Nc2ccccc21

SMILES: Nc1nccc(-c2c(-c3ccc(F)cc3)ncn2C2CCNCC2)n1
residual activity (MAP3K5 (human)): 102%
residual activity (SRPK2 (human)): 96.4%
residual activity (PIM1 (human)): 97%
residual activity (SLK (human)): 99.9%
residual activity (MATK (human)): 99.5%
residual activity (RPS6KB2 (human)): 90.9%
residual activity (EPHA1 (human)): 98.2%
residual activity (LRRK2 (human)): 99.9%
residual activity (ROCK2 (human)): 103%
residual activity (ACVRL1 (human)): 95.6%
residual activity (MAP3K10 (human)): 99.8%
residual activity (ROS1 (human)): 94.1%
residual activity (FER (human)): 98.3%
residual activity (CDC42BPB (human)): 101%
residual activity (ZAP70 (human)): 92.3%
residual activity (NLK (human)): 12.1%
residual activity (ALK (human)): 102%
residual activity (CSNK1A1 (human)): 2.82%
residual activity (WNK2 (human)): 93.1%
residual activity [1]: 99.8%
residual activity (TNK2 (human)): 98%
residual activity (DAPK2 (human)): 94.1%
residual activity (KIT (human)): 98.4%
residual activity (PDPK1 (human)): 103%
residual activity (RAF1 (human)): 90.9%
residual activity (AURKC (human)): 97.8%
residual activity (PLK1 (human)): 101%
residual activity (NEK11 (human)): 105%
residual activity (MET (human)): 104%
residual activity (EGFR (human)): 94.4%
residual activity (CAMK1D (human)): 103%
residual activity (RET (human)): 89.4%
residual activity (NTRK2 (human)): 103%
residual activity (MERTK (human)): 98%
residual activity (MAP3K2 (human)): 94%
residual activity (TGFBR2 (human)): 119%
residual activity (FGFR4 (human)): 85.7%
residual activity (CSNK1E (human)): 2.39%
residual activity (ACVR1B (human)): 121%
residual activity (HIPK4 (human)): 96.6%
residual activity (PAK2 (human)): 76.9%
residual activity (FES (human)): 103%

SMILES: COc1cc2ncnc(N3CCN(C(=O)Nc4ccc(Oc5ccccc5)cc4)CC3)c2cc1OC
residual activity (MAP3K5 (human)): 102%
residual activity (SRPK2 (human)): 89.1%
residual activity (PIM1 (human)): 102%
residual activity (SLK (human)): 97.9%
residual activity (MATK (human)): 96.8%
residual activity (RPS6KB2 (human)): 92.4%
residual activity (EPHA1 (human)): 102%
residual activity (LRRK2 (human)): 98.3%
residual activity (ROCK2 (human)): 125%
residual activity (ACVRL1 (human)): 93%
residual activity (MAP3K10 (human)): 92%
residual activity (ROS1 (human)): 89.7%
residual activity (FER (human)): 99.8%
residual activity (CDC42BPB (human)): 98.3%
residual activity (ZAP70 (human)): 100%
residual activity (NLK (human)): 99.9%
residual activity (ALK (human)): 101%
residual activity (CSNK1A1 (human)): 108%
residual activity (WNK2 (human)): 102%
residual activity [1]: 83.1%
residual activity (TNK2 (human)): 77.1%
residual activity (DAPK2 (human)): 95%
residual activity (KIT (human)): 48.2%
residual activity (PDPK1 (human)): 92.3%
residual activity (RAF1 (human)): 88%
residual activity (AURKC (human)): 90.3%
residual activity (PLK1 (human)): 96.6%
residual activity (NEK11 (human)): 107%
residual activity (MET (human)): 107%
residual activity (EGFR (human)): 79.1%
residual activity (CAMK1D (human)): 104%
residual activity (RET (human)): 104%
residual activity (NTRK2 (human)): 121%
residual activity (MERTK (human)): 60%
residual activity (MAP3K2 (human)): 81.2%
residual activity (TGFBR2 (human)): 102%
residual activity (FGFR4 (human)): 99.7%
residual activity (CSNK1E (human)): 94.6%
residual activity (ACVR1B (human)): 94.7%
residual activity (HIPK4 (human)): 75.4%
residual activity (PAK2 (human)): 104%
residual activity (FES (human)): 98.3%
